Patent US20110312973A1, “SOLID COMPOSITIONS” (priority 2010, published 2011)

Assay: Aqueous solubility
Type: physicochemical

- aqueous solubility: low aqueous solubility
Compound: Cc1cnc(C(=O)N[C@H]2CCCCC/C=C\[C@@H]3C[C@@]3(C(=O)NS(=O)(=O)C3CC3)NC(=O)[C@@H]3C[C@@H](Oc4nc5ccccc5c5ccccc45)CN3C2=O)cn1 [Compound I, (2R,6S,13aS,14aR,16aS,Z)-N-(cyclopropylsulfonyl)-6-(5-methylpyrazine-2-carboxamido)-5,16-dioxo-2-(phenanthridin-6-yloxy)-1,2,3,5,6,7,8,9,10,11,13a,14,14a,15,16,16a-hexadecahydrocyclopropa[e]pyrrolo[1,2-a][1,4]diazacyclopentadecine-14a-carboxamide]
